# Results reported in patent US20070185119A1, “Therapeutic agents II” (ASTRAZENECA AB, priority 2004, published 2007).
# Target: T1, human Melanin concentrating hormone receptor 1 (MCH1r) (Homo sapiens, UniProt Q99705)
# T1 construct: expressed in transfected cells; host or cells: CHO-K1 cells (membranes)
# Assay: MCH1 receptor radioligand binding (125I-MCH, CHO-K1 cell membranes)
# Details: human MCHr binding assay
# Procedure: MCH1 Receptor Radioligand Binding.
# Assays were performed on membranes prepared from CHO-K1 cells expressing the human Melanin concentrating hormone receptor 1 (MCH1r). Assays were performed in a 96-well plate format in a final reaction volume of 200 μl per well. Each well contained 6 μg of membrane proteins diluted in binding buffer (50 mM Tris, 3 mM MgCl2, 0.05% bovine serum albumin (BSA) and the radioligand ^125I-MCH (IM344 Amersham) was added to give 10 000 cpm (counts per minute) per well. Each well contained 2 μl of the appropriate concentration of competitive antagonist prepared in DMSO and left to stand at 30° C. for 60 minutes. Non-specific binding was determined as that remaining following incubation with 1 μM MCH (Melanin concentrating hormone, H-1482 Bachem). The reaction was terminated by transfer of the reaction to GF/A filters using a Micro96 Harvester (Skatron Instruments, Norway). Filters were washed with assay buffer. Radioligand retained on the filters was quantified using a1450 Microbeta TRILUX (Wallac, Finland).
# Non-specific binding was subtracted from all values determined. Maximum binding was that determined in the absence of any competitor following subtraction of the value determined for non-specific binding. […]
# T1 sequence (Q99705 whole entry): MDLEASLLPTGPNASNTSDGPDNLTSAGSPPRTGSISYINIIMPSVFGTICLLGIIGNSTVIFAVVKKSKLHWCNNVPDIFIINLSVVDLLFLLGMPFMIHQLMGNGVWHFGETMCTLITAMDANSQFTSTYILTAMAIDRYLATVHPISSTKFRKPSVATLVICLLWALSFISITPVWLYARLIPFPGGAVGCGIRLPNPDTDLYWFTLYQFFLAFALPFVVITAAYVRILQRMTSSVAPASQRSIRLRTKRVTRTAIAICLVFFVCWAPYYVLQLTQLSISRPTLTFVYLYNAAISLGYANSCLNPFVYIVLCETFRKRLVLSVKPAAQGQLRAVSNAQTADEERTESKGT
compound,measurement,value
"CN(C)c1nc(N[C@H]2CCC[C@H](NCc3cn(C)c4ccccc34)C2)nc2ccccc12 (relative stereo) [Example 4, N^4,N^4-dimethyl-N^2-(-3-{[(1-methyl-1H-indol-3-yl)methyl]amino}-trans-cyclohexyl)quinazoline-2,4-diamine]",IC50,15 nM
